{"source": "patent US6846674B2", "about": "“Genetically modified fibroblast cells” (Deutsche Krebsforschungszentrum Stiftung des Offentlichen …, priority 2000, dated 2005)", "molecules": {"B1": {"name": "KGF: cytokine / growth factor KGF (BTS, St. Leon, Germany) (protein, UniProt P21781 32-194, looked up)", "Fibroblast growth factor 7": "CNDMTPEQMATNVNCSSPERHTRSYDYMEGGDIRVRRLFCRTQWYLRIDKRGKVKGTQEMKNNYNIMEIRTVAVGIVAIKGVESEFYLAMNKEGKLYAKKECNEDCNFKELILENHYNTYASAKWTHNGGEMFVALNQKGIPVRGKKTKKEQKTAHFLPMAIT"}}, "key": {"[1]": {"test_system": "primary human keratinocytes", "test": "2D coculture of c-jun −/− c-JunER™ fibroblasts with primary human keratinocytes", "type": "cell-based", "conditions": "100 nM every 12 hours, three days, immunofluorescence", "from_the_text": "The corresponding controls remained untreated."}, "[2]": {"test_system": "keratinocytes (epithelial formation and differentiation)", "test": "organotypical cultures with c-jun −/− fibroblasts, application of cytokines", "type": "cell-based, human", "conditions": "for phenotype obtained in organotypical cultures with c-jun −/−: FIG. 6", "procedure": "Type 1 collagen was prepared from rat tail tendons and provided at a concentration of 4 mg/ml in 0.1% acetic acid as rdady-to-use solution (Smola et al., 1993). The collagen gels used consisted of 80% by volume of 4 mg/ml collagen in 0.1% acetic acid, 10% by volume Hank's salt solution (concentrated tenfold) and 10% by volume FCS with or without cells (2×10^5 cells/ml). The liquid collagen was admixed with Hank's solution on ice and neutralized with 5 M NaOH with stirring (trypsinated cells taken up in FCS can then be added to the collagen solution by stirring). The gel solution was poured into cell culture dishes or 2.5 ml each into filter inserts (3 μm pore size, Becton Dickinson, Heidelberg, Germany) and allowed to stay in an incubator to form a gel for 1 hour. Sterile glass rings having an internal diameter of 18 mm (1.5 mm wall thickness, 12 mm height) were placed onto the gels and slightly pressed thereon. Following 1 h in the incubator, the collagen gels were equilibrated in DMEM with 10% FCS. After 24 h, the medium was withdrawn from the glass rings and 1 ml keratinocyte suspension (9×10^5 cells/ml FAD) each were seeded into the glass ring interior. After 24 h of incubation, the medium was removed from the keratinocytes so as to expose the cells to air. This time was defined as day 0 of the organotypcial cultures. DMEM having 10% FCS was exchanged every other day, the medium level in this case bordering on the top gel rim. For histological or immunohistochemical processing, the cultures were fixed or frozen. In order to detect proliferating cells in a culture by immunohistochemical methods, the cultures BrdU (Sigma) were added to the medium at a concentration of 65 μM 12 h prior to fixing.\n2D cocultures on plastic dishes or glass slides or in 3D form as organotypical cultures were incubated in corresponding standard medium for 24 h. Thereafter, medium enriched with cytokines was added and the cultures were incubated therewith depending on the experiment for several hours or days, the medium being changed with factor added every other day. Supplier of the growth factors and antibodies: KGF (BTS, St. Leon, Germany); anti-GM-CSF, polyclonal, neutralizing (R&D-Systems, Wiesbaden, Germany); GM-CSF (Boehringer Mannheim, Germany) and anti-KGF, monoclonal, neutralizing (R&D-Systems).\nIn the case of monolayer cultures of adherent cells, the medium was withdrawn from the cells and the cells were fixed on the glass slides in 80% methanol for 5 min. and 100% acetone for 3 min. The slides were then dried and stored at −40° C. For the production of paraffin preparations, organotypical cocultures or skin biopsies wee fixed in 3.5% formaldehyde (in PBS+) for at least 24 h, and initially embedded in agar and then in paraffin (Medim, Vogel company, GieβSen, Germany). The preparations were cut into 2 μm sections which were stained histologically with hematoxylin (15 min.) and eosin (5 min.). Following deparaffinization it was also possible to use the paraffin sections for immunohistochemical analyses. For the production of frozen preparations, skin samples or organotypical cocultures were frozen on cork platelets in embedding gel (“Tissue Teck”, O.C.T., Frankfurt, Germany) on liquid nitrogen. The preparations were stored at −80° C. 5-μm sections were prepared using a freezing microtome, placed onto silanized slides and used for immunohistochemical analyses.\nParaffin sections were deparaffinized in a descending alcohol series and rinsed in PBS. Thereafter, the epitopes on the tissue sections were made accessible by boiling the sections in “Tuf” solution for 5 min. (Advanced Biotechnologies, Hamburg, Germany) and 0.1% trypsin at 37° C. or microwave treatment in 0.1 M citrate buffer for 30 min. Freeze sections were fixed in 80% methanol for 5 min., then in acetone for 2 min. For detecting the incorporation of BrdU (proliferation assay), the sections were incubated in 1.5 M HCI for 10 min. to denature the DNA strands. […]"}}, "note": "“Also recorded” adds a separate entry of the source.", "data": [{"molecule": "CC/C(=C(\\c1ccc(O)cc1)c1ccc(OCCN(C)C)cc1)c1ccccc1", "note": "[4-OH-tamoxifen]", "values": [{"measurement": "enhanced expression of the differentiation marker K1/K10", "setting": "[1]", "value": "can be eliminated again"}]}, {"molecule": "GM-CSF: cytokine GM-CSF (Boehringer Mannheim, Germany)", "values": [{"measurement": "phenotype obtained in organotypical cultures with c-jun −/−", "setting": "[2]", "value": "can partially be reversed"}, {"measurement": "K1/K10 expression", "setting": "[2]; c-jun −/− fibroblasts", "value": "expressed late"}, {"measurement": "differentiation status of the epithelium", "setting": "[2]; c-jun −/− fibroblasts", "value": "does not correspond to the normal condition"}, {"measurement": "epithelial formation", "setting": "[2]; c-jun −/− fibroblasts", "value": "eliminates the reduced epithelial formation; also recorded: effects an enhanced epithelial formation"}, {"measurement": "loricrin expression (timing)", "setting": "[2]; c-jun −/− fibroblasts", "value": "expressed prematurely"}, {"measurement": "transglutaminase, filaggrin and loricrin expression", "setting": "[2]; c-jun −/− fibroblasts", "value": "expressed enhancedly"}]}, {"molecule": "B1", "values": [{"measurement": "phenotype obtained in organotypical cultures with c-jun −/−", "setting": "[2]", "value": "can partially be reversed"}, {"measurement": "differentiation status of the epithelium", "setting": "[2]; c-jun −/− fibroblasts", "value": "the full differentiation status is not restored"}, {"measurement": "epithelial formation", "setting": "[2]; c-jun −/− fibroblasts", "value": "eliminates the reduced epithelial formation"}, {"measurement": "granular layer and expression of the differentiation markers filaggrin and loricrin", "setting": "[2]; c-jun −/− fibroblasts, histology", "value": "lack"}]}]}
